{"source": "paper PMC11371747", "about": "“The role of l-leucovorin uptake and metabolism in the modulation of 5-fluorouracil efficacy and antifolate toxicity” (Frontiers in Pharmacology, 2024)", "key": {"[1]": {"biological_target": "T1, reduced folate carrier (RFC/SLC19A1) (Homo sapiens, UniProt P41440)", "T1 construct": "CEM-7A cells, which display 30-fold RFC overexpression relative to wild-type CCRF-CEM cells; endogenous in cells; host or cells: CEM-7A (CCRF-CEM variant, RFC+++ 30-fold)", "T1 sequence (P41440 1-591)": "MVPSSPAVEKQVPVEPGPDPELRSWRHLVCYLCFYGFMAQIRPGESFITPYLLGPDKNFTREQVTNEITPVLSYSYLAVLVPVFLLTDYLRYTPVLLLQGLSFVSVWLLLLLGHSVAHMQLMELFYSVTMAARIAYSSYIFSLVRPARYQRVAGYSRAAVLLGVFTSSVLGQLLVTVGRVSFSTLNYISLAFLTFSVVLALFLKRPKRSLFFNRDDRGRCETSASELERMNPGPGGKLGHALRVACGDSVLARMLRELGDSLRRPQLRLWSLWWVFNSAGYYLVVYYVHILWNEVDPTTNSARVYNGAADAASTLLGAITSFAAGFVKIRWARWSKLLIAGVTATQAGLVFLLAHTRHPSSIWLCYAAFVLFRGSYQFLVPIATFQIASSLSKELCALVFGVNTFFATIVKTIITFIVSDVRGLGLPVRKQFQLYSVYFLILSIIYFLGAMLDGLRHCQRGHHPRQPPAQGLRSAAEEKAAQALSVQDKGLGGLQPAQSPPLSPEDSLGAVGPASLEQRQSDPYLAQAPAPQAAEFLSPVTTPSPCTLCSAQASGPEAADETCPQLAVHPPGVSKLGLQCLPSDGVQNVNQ", "assay": "Inhibition of RFC-mediated [3H]-l-LV influx in CEM-7A cells", "assay_type": "cell-based", "protocol": "In order to determine whether the LV isomers were substrates for either folate receptor α (FRα), RFC and/or PCFT, we used model systems with established overexpression of these receptors or transporters ([Westerhof et al., 1995a]; [Westerhof et al., 1995b]; [Lasry et al., 2008]; [Van der Heijden et al., 2009]).\nCEM-7A cells (2 × 10^6) were suspended in 1 mL HBSS and the assay was initiated by addition of 25 μL 200 μM [^3H]-l-LV; 5,000 pmol (i.e., 5 μM final concentration). Incubations proceeded for 2 min at 37°C in the absence and presence of increasing amounts of unlabelled LV/antifolate drug. Blanks consisted of a separate incubation at 4°C or incubation with 100-fold molar excess of unlabelled l-LV. [^3H]-l-LV influx was terminated by adding 9 mL ice-cold HBSS, centrifugation and an additional wash of the cells with 10 mL ice-cold buffer. Cell pellets were then assessed for radioactivity. Relative affinities for RFC are expressed as the concentration of unlabelled drug necessary to inhibit [^3H]-l-LV uptake by 50%."}, "H460 cells": {"system": "H460 cells", "assay": "Growth inhibition, SRB assay, H460 (NSCLC)", "assay_type": "cell-based, human", "conditions": "for IC50: H460, SRB, read-out: IC50, 72 h drug exposure", "protocol": "(§1) Briefly, cells were seeded in triplicate in 96-well plates at their pre-established optimal density (CHO cells: 2,500 cells/100 μL; WiDr and HT29: 3,500 cells/100 μL; WiDr-LF/LV, LS174T: 5,000 cells/100 μL; CaCo2, CaCo2-LF/LV, H292, H28 and MSTO-211H: 6,000 cells/100 μL; H460, SW948 and SW1398: 7,000 cells/100 μL) and were allowed to attach for ∼ 24 h at 37°C in 5% CO2 and 100% humidified incubator. Thereafter, 100 μL of drug dilution without LV, or with 5 μM l-LV/5 μM d-LV/10 μM dL-LV (or any LV alone) were added. Cells were allowed to grow for 72 h at 37°C in 5% CO2 and 100% humidity. The t = 0 h control plate consisted of cells plated on the same day as the other cells, but after 24 h at 37°C in 5% CO2 and 100% humidity, only 100 μL medium was added and the cells were fixed immediately with 50% trichloroacetic acid (TCA) in milliQ water (25 μL per well) and put at 4°C for at least 1 h. Plates were washed five times with water and dried. Cells were stained with the SRB protein dye (0.4% (w/v) in 1% acetic acid. Excess dye was washed away four times with 1% acetic acid and plates were dried again. 200 μL of Tris (10 mM Tris (hydroxymethyl)-aminomethane in MQ) was added and optical density (OD) was read at 492 nm after mixing 2–3 min on a plate shaker."}, "H292 cells": {"system": "H292 cells", "assay": "Growth inhibition, SRB assay, H292 (NSCLC)", "assay_type": "cell-based, human", "conditions": "for IC50: H292, SRB, read-out: IC50, 72 h drug exposure", "protocol": "as §1"}, "CHO/C5-hRFC cells": {"system": "CHO/C5-hRFC cells", "assay": "Growth inhibition, SRB assay, CHO/C5-hRFC (human RFC transfected)", "assay_type": "cell-based, Chinese hamster", "conditions": "CHO/C5-hRFC", "protocol": "as §1"}}, "note": "Like-named read-outs stand apart in the source and are kept apart here.", "data": [{"smiles": "C#CCC(Cc1cnc2nc(N)nc(N)c2n1)c1ccc(C(=O)N[C@@H](CCC(=O)O)C(=O)O)cc1", "note": "(stereo partly drawn) [PLX, pralatrexate]", "values": [{"measurement": "50% inhibition of [3H]-l-LV influx (RFC), fold lower concentration than l-LV", "setting": "[1]", "result": 2.5, "unit": "fold"}, {"measurement": "IC50", "setting": "H460 cells; antifolate + 5 µM l-LV", "result": 1450, "unit": "nM"}, {"measurement": "Relative protection by 5 µM l-LV", "setting": "H460 cells; H460, ratio IC50 antifolate + LV / IC50 antifolate", "result": "502 ± 21"}, {"measurement": "IC50", "setting": "H460 cells; Homo sapiens, NCI-H460, 72 h, antifolate alone", "result": "2.8 ± 0.1", "unit": "nM"}, {"measurement": "IC50", "setting": "H292 cells; antifolate + 5 µM l-LV", "result": 19100, "unit": "nM"}, {"measurement": "Relative protection by 5 µM l-LV", "setting": "H292 cells; H292, ratio IC50 antifolate + LV / IC50 antifolate", "result": "4,778 ± 1795"}, {"measurement": "IC50", "setting": "H292 cells; Homo sapiens, NCI-H292, 72 h, antifolate alone", "result": "3.7 ± 0.3", "unit": "nM"}, {"measurement": "IC50", "setting": "CHO/C5-hRFC cells; antifolate + 5 µM l-LV", "result": 900, "unit": "nM"}, {"measurement": "IC50", "setting": "CHO/C5-hRFC cells; Cricetulus griseus, antifolate alone", "result": 3.8, "unit": "nM"}]}]}
